The values below come from ChEMBL document CHEMBL4002626, “Identification of a selective inhibitor of transforming growth factor β-activated kinase 1 by biosensor-based screening of focused libraries” (Bioorg Med Chem Lett, 2017).

The structures appear in SMILES notation. pIC50, pKd: −log10 of the molar value. Activity calls are given as the source filed them. No cut-off for these calls is given here.

Data set [1] deals with T1, Mitogen-activated protein kinase kinase kinase 7 (Homo sapiens, UniProt O43318).
T1 sequence (O43318 whole entry): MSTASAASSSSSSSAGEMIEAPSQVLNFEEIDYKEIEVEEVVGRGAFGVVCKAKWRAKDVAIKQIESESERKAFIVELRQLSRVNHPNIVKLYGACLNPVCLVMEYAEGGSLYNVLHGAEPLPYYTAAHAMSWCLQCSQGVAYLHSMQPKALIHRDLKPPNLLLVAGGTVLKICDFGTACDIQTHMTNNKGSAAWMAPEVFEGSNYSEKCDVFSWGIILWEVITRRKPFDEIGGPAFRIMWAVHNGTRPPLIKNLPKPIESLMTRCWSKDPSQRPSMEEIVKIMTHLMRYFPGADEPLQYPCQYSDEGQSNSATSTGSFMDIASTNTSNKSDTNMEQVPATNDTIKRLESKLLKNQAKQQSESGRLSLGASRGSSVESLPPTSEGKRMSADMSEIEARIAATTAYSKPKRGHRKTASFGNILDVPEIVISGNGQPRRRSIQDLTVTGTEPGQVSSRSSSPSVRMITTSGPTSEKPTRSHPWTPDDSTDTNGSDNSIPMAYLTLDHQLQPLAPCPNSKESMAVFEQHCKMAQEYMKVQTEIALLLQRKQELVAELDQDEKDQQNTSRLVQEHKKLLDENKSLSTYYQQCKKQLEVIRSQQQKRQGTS
In words: Binding affinity to recombinant human biotinylated N-terminal GST-tagged autophosphorylated TAK1 (1 to 303 residues) fused with TAB1 (437 to 504 residues) expressed in baculovirus infected sf9 cells by SPR assay. Background: In SPR one partner is held on a chip, and binding of the other changes the refractive index at the surface.

The target of data set [2] is Dual specificity mitogen-activated protein kinase kinase 1 (Homo sapiens, UniProt Q02750). The data set can be described thus: Inhibition of MEK1 (unknown origin).
Data set [3] can be described thus: Inhibition of PKA (unknown origin). On the set-up: species or system Homo sapiens.
For data set [4], the target named is Cyclin-dependent kinase 2 (Homo sapiens, UniProt P24941). In words: Inhibition of CDK2 (unknown origin).
The target in data set [5] is T2, Protein kinase C beta type (Homo sapiens, UniProt P05771). In words: Inhibition of recombinant full length human N-terminal GST-tagged PKCbeta2 (1 to 673 residues) expressed in baculovirus expression system.
T2 sequence (P05771 whole entry, the tested form may be a part): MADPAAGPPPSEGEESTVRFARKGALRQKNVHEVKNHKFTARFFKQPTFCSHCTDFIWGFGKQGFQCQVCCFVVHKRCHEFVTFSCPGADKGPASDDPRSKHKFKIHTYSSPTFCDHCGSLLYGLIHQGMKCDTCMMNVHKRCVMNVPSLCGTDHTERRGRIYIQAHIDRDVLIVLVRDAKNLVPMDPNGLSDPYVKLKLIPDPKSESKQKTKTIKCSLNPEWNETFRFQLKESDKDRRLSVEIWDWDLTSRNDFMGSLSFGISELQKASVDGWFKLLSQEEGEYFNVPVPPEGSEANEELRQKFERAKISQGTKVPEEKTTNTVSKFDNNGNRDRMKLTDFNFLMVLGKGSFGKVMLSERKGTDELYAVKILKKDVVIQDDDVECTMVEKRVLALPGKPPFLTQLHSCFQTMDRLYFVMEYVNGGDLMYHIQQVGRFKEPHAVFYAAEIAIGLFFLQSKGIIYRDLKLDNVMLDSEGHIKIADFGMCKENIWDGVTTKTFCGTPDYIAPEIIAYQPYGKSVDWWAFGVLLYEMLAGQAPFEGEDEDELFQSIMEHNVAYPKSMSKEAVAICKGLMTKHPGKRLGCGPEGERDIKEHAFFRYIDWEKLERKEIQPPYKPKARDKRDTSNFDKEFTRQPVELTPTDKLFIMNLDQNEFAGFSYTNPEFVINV
Data set [6] is described as follows: Solubility of the compound in 50 mM phosphate buffer at pH 6.5 after 24 hrs by HPLC-UV spectrophotometric assay. Format: physicochemical.
The target of data set [7] is Leukocyte tyrosine kinase receptor (Homo sapiens, UniProt P29376). The data set can be described thus: Inhibition of recombinant human N-terminal GST-tagged LTK cytoplasmic domain (498 to 796 residues) expressed in baculovirus expression system.
The target in data set [8] is Tyrosine-protein kinase receptor UFO (Homo sapiens, UniProt P30530). The data set can be described thus: Inhibition of recombinant human N-terminal GST-tagged AXL cytoplasmic domain (464 to 885 residues) expressed in baculovirus expression system.
The target in data set [9] is Tyrosine-protein kinase Yes (Homo sapiens, UniProt P07947). In words: Inhibition of recombinant full length human N-terminal GST-tagged YES (1 to 543 residues) expressed in baculovirus expression system.
The target of data set [10] is Hepatocyte growth factor receptor (Homo sapiens, UniProt P08581). The data set can be described thus: Inhibition of recombinant human N-terminal GST-tagged MET cytoplasmic domain (956 to 1390 residues) expressed in baculovirus expression system.
Data set [11] deals with Fibroblast growth factor receptor 2 (Homo sapiens, UniProt P21802). In words: Inhibition of recombinant human N-terminal GST-tagged FGFR2 cytoplasmic domain (399 to 821 residues) expressed in baculovirus expression system.
Data set [12] has as its target RAC-alpha serine/threonine-protein kinase (Homo sapiens, UniProt P31749). The data set can be described thus: Inhibition of recombinant human N-terminal GST-tagged AKT1 catalytic domain (104 to 480 residues) expressed in baculovirus expression system.
Data set [13] concerns the target Tyrosine-protein kinase Lck (Homo sapiens, UniProt P06239). The data set can be described thus: Inhibition of recombinant full length human N-terminal GST-tagged LCK (1 to 509 residues) expressed in baculovirus expression system.
The target of data set [14] is Proto-oncogene tyrosine-protein kinase Src (Homo sapiens, UniProt P12931). In words: Inhibition of recombinant full length human N-terminal GST-tagged SRC (1 to 536 residues) expressed in baculovirus expression system.
Sequence of Proto-oncogene tyrosine-protein kinase Src (P12931 2-536 limits assumed): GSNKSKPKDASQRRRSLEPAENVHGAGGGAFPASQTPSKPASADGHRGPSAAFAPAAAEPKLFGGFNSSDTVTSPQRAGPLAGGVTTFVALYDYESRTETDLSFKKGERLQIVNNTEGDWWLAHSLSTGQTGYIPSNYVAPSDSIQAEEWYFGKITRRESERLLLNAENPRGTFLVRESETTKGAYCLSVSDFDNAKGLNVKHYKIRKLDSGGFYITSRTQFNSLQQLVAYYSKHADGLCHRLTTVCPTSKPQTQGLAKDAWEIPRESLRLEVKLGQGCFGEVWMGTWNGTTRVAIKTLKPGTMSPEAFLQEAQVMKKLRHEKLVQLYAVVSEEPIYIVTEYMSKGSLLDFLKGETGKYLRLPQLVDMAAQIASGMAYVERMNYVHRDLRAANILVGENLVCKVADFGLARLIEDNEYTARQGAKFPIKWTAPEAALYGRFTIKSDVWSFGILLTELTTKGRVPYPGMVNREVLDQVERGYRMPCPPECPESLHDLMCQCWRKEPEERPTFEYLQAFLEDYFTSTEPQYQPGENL
In data set [15] the target is Ephrin type-A receptor 2 (Homo sapiens, UniProt P29317). The data set can be described thus: Inhibition of recombinant human N-terminal GST-tagged EPHA2 cytoplasmic domain (572 to 976 residues) expressed in baculovirus expression system.
The target in data set [16] is Epithelial discoidin domain-containing receptor 1 (Homo sapiens, UniProt Q08345). In words: Inhibition of recombinant human N-terminal GST-tagged DDR1 cytoplasmic domain (444 to 876 residues) expressed in baculovirus expression system.
Data set [17] deals with Protein kinase C zeta type (Homo sapiens, UniProt Q05513). The data set can be described thus: Inhibition of recombinant full length human N-terminal GST-tagged PKCzeta (1 to 592 residues) expressed in baculovirus expression system.
The target in data set [18] is Mast/stem cell growth factor receptor Kit (Homo sapiens, UniProt P10721). The data set can be described thus: Inhibition of recombinant human N-terminal GST-tagged KIT cytoplasmic domain (544 to 976 residues) expressed in baculovirus expression system.
Sequence of Mast/stem cell growth factor receptor Kit (P10721 whole entry, the tested form may be a part): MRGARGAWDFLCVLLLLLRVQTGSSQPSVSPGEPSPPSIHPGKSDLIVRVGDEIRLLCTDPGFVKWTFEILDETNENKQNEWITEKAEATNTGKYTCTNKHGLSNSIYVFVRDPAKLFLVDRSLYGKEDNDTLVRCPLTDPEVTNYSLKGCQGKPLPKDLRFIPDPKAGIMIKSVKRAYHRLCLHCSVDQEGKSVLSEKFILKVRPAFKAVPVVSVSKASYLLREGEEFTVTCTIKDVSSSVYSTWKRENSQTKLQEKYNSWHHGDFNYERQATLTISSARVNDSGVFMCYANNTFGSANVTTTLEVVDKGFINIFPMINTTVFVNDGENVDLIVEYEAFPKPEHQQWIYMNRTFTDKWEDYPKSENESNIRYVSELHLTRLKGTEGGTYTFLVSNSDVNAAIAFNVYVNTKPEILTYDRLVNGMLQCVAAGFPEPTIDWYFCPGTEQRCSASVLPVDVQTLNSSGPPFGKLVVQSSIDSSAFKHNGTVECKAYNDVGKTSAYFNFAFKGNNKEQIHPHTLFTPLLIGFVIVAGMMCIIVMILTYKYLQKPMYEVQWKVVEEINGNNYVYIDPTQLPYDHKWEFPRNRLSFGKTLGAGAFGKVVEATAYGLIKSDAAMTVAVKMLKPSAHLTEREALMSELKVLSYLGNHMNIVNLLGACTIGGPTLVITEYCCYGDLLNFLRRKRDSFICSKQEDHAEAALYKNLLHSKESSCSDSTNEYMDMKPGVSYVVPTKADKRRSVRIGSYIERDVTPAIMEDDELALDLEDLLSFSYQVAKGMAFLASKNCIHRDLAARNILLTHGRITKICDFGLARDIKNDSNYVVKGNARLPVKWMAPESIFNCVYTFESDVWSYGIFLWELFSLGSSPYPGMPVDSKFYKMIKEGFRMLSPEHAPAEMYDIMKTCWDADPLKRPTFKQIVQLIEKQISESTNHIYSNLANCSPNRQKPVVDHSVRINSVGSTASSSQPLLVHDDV
Data set [19] has as its target Tyrosine-protein kinase Fyn (Homo sapiens, UniProt P06241). The data set can be described thus: Inhibition of FYN (unknown origin).
In data set [20] the target is Focal adhesion kinase 1 (Homo sapiens, UniProt Q05397). In words: Inhibition of recombinant human N-terminal GST-tagged FAK cytoplasmic domain (376 to 1052 residues) expressed in baculovirus expression system.
For data set [21], the target named is T2, Protein kinase C beta type. The data set can be described thus: Inhibition of recombinant full length human N-terminal GST-tagged PKCbeta1 (1 to 671 residues) expressed in baculovirus expression system.
Data set [22] has as its target Epidermal growth factor receptor (Homo sapiens, UniProt P00533). In words: Inhibition of recombinant human N-terminal GST-tagged EGFR cytoplasmic domain (669 to 1210 residues) expressed in baculovirus expression system.
Data set [23] addresses BMP-2-inducible protein kinase (Homo sapiens) (UniProt Q9NSY1). The data set can be described thus: Inhibition of human BIKE (S34 to N329 residues) expressed in bacterial expression system at 1 uM by KINOMEscan assay.
The target in data set [24] is Protein kinase C alpha type (Homo sapiens, UniProt P17252). The data set can be described thus: Inhibition of recombinant full length human N-terminal GST-tagged PKCalpha (1 to 351 residues) expressed in baculovirus expression system.
The target of data set [25] is Aurora kinase A (Homo sapiens, UniProt O14965). The data set can be described thus: Inhibition of recombinant full length human N-terminal GST-tagged Aurora kinase-A (1 to 403 residues) expressed in baculovirus expression system.
Sequence of Aurora kinase A (O14965 whole entry, the tested form may be a part): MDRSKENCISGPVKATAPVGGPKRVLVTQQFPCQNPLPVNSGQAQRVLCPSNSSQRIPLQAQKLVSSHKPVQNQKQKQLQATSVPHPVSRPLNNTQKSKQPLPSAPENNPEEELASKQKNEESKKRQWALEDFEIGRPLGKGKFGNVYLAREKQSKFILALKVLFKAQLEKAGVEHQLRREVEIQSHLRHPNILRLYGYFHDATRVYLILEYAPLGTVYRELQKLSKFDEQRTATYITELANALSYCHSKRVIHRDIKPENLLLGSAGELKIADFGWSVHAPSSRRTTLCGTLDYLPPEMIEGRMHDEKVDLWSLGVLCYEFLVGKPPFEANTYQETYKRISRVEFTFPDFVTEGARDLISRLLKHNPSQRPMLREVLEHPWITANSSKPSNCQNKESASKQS
Data set [26] concerns the target Insulin receptor (Homo sapiens, UniProt P06213). In words: Inhibition of recombinant human N-terminal GST-tagged INSR cytoplasmic domain (1005 to 1310 residues) expressed in baculovirus expression system.
A short description of data set [27]: Solubility of the compound in fasted state simulated intestinal fluid at pH 6.5 after 24 hrs by HPLC-UV spectrophotometric assay. It counts as physicochemical.
The target of data set [28] is Protein-tyrosine kinase 6 (Homo sapiens, UniProt Q13882). The data set can be described thus: Inhibition of recombinant full length human N-terminal GST-tagged BRK (2 to 451 residues) expressed in baculovirus expression system.
Sequence of Protein-tyrosine kinase 6 (Q13882 whole entry, the tested form may be a part): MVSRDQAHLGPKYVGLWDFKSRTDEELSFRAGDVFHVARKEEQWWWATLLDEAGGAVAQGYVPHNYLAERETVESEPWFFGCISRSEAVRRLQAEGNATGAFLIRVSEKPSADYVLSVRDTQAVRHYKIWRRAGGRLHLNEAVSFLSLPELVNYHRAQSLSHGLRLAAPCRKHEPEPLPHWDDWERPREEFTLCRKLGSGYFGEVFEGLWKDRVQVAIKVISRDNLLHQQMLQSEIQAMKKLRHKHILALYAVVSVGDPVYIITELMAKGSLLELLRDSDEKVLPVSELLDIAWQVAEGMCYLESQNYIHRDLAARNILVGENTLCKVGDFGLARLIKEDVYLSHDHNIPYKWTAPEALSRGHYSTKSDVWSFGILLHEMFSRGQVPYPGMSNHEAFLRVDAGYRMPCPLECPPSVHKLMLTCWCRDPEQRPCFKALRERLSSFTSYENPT
For data set [29], the target named is Tyrosine-protein kinase Lyn (Homo sapiens, UniProt P07948). The data set can be described thus: Inhibition of LYN (unknown origin).
In data set [30] the target is T3, Mitogen-activated protein kinase kinase kinase 7 (Homo sapiens) (UniProt O43318).
T3 sequence (whole entry): T1 sequence (O43318 whole entry)
The data set can be described thus: Binding affinity to recombinant human biotinylated N-terminal GST-tagged TAK1 (1 to 303 residues) fused with TAB1 (437 to 504 residues) expressed in baculovirus infected sf9 cells at 1 uM in presence of ATP by SPR assay.

Data set [31] has as its target RAF proto-oncogene serine/threonine-protein kinase (Homo sapiens, UniProt P04049). The data set can be described thus: Inhibition of recombinant human N-terminal GST-tagged RAF1 catalytic domain (306 to 648 residues) expressed in baculovirus expression system.
In data set [32] the target is T1, Mitogen-activated protein kinase kinase kinase 7. The data set can be described thus: Binding affinity to recombinant human biotinylated N-terminal GST-tagged non-autophosphorylated TAK1 (1 to 303 residues) fused with TAB1 (437 to 504 residues) expressed in baculovirus infected sf9 cells by SPR assay.
The target of data set [33] is Vascular endothelial growth factor receptor 2 (Homo sapiens, UniProt P35968). In words: Inhibition of recombinant human N-terminal GST-tagged KDR cytoplasmic domain (790 to 1356 residues) expressed in baculovirus expression system.
Sequence of Vascular endothelial growth factor receptor 2 (P35968 whole entry, the tested form may be a part): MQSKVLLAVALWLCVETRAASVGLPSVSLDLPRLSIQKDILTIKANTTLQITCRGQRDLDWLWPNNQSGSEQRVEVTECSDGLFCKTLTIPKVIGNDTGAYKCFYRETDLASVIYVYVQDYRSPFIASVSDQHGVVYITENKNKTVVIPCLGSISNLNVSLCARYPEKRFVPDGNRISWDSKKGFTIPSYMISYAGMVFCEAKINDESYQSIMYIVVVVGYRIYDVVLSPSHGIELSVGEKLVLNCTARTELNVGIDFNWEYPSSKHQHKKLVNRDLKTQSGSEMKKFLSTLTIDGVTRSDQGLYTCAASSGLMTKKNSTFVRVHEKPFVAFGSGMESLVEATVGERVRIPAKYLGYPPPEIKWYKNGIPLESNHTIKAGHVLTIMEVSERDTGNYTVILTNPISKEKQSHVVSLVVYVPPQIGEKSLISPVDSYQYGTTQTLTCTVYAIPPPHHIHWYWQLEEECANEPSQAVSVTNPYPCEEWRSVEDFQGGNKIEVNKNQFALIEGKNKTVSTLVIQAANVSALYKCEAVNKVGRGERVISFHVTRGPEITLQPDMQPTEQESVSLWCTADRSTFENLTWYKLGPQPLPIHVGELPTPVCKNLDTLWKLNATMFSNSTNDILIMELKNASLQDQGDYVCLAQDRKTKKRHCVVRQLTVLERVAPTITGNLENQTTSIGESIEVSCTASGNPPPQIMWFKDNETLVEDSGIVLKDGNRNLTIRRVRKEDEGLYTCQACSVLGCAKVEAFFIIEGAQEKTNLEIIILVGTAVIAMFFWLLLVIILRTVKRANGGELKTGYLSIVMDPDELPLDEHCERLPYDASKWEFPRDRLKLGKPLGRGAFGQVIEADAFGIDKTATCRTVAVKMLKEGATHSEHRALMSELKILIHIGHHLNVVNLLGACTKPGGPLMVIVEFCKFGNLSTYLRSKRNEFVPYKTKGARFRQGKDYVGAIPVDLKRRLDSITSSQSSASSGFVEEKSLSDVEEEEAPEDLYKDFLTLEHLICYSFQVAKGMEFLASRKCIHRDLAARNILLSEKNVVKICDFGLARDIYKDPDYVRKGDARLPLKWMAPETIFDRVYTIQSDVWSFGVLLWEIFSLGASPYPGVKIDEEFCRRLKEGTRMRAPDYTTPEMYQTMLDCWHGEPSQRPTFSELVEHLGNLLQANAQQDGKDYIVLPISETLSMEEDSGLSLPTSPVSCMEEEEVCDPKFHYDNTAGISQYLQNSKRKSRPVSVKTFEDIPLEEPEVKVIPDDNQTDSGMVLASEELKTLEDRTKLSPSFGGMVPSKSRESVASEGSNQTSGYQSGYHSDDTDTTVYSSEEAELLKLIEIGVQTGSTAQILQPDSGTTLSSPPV
The target of data set [34] is Mitogen-activated protein kinase 14 (Homo sapiens, UniProt Q16539). In words: Inhibition of recombinant human N-terminal GST-tagged p38-alpha (9 to 352 residues) expressed in Escherichia coli expression system.
Sequence of Mitogen-activated protein kinase 14 (Q16539 whole entry, the tested form may be a part): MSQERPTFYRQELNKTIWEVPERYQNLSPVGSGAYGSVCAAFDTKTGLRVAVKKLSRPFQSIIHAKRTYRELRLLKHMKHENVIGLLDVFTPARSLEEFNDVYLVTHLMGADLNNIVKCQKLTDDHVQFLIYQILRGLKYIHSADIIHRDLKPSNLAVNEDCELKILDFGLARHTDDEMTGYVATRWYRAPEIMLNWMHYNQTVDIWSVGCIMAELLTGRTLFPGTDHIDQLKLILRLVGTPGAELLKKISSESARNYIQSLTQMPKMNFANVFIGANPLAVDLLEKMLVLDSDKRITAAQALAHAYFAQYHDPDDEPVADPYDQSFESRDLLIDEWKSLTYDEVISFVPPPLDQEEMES
Data set [35] addresses Tyrosine-protein kinase ABL1 (Homo sapiens, UniProt P00519). In words: Inhibition of recombinant full length human N-terminal GST-tagged ABL (2 to 1130 residues) expressed in baculovirus expression system.
Data set [36] addresses Cyclin-dependent kinase 1 (Homo sapiens, UniProt P06493). The data set can be described thus: Inhibition of CDK1 (unknown origin).
In data set [37] the target is Insulin-like growth factor 1 receptor (Homo sapiens, UniProt P08069). The data set can be described thus: Inhibition of recombinant human N-terminal GST-tagged IGF1R cytoplasmic domain (959 to 1367 residues) expressed in baculovirus expression system.
Data set [38] deals with Receptor-type tyrosine-protein kinase FLT3 (Homo sapiens, UniProt P36888). In words: Inhibition of recombinant human N-terminal GST-tagged FLT3 cytoplasmic domain (564 to 993 residues) expressed in baculovirus expression system.
For data set [39], the target named is Macrophage-stimulating protein receptor (Homo sapiens, UniProt Q04912). In words: Inhibition of recombinant human N-terminal GST-tagged RON cytoplasmic domain (979 to 1400 residues) expressed in baculovirus expression system.
The nature of data set [40]: Inhibition of PDGFR (unknown origin). Further details: species or system Homo sapiens.
For data set [41], the target named is T3, Mitogen-activated protein kinase kinase kinase 7 (Homo sapiens). In words: Binding affinity to TAK1 (unknown origin) at 5 uM using spin-labeled probe by 1H NMR method.
For data set [42] the target is unchanged. In words: Binding affinity to recombinant human biotinylated N-terminal GST-tagged TAK1 (1 to 303 residues) fused with TAB1 (437 to 504 residues) expressed in baculovirus infected sf9 cells at 250 uM in presence of adenosine by SPR assay.

The pKd is the negative decadic logarithm of the Kd, by convention in mol/L. What is called pIC50 is the IC50 on a negative log10 scale, so that one unit is a factor of ten. For orientation: solubility means how much of the substance goes into solution per volume. The low end stands for a poorly soluble substance, the high end for a readily soluble substance.

Sequence of Cyclin-dependent kinase 1 (P06493 whole entry, the tested form may be a part): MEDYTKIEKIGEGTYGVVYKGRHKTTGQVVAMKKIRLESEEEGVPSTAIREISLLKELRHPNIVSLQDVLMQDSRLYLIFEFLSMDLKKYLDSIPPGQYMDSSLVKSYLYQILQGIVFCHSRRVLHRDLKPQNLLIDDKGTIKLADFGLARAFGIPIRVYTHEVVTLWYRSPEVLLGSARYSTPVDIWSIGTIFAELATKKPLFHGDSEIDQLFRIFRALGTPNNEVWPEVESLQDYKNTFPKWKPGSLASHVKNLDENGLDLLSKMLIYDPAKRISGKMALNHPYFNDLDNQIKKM

`CN1CCN(c2cccc3cc(NC(=O)Nc4ccc(Oc5ccnc6[nH]ccc56)cc4)ccc23)CC1`: the negative-log Kd (pKd) in data set [1] was 7.92.
Turning to `COc1cc2ncccc2cc1NC(=O)c1csc2cncnc12`, the negative-log IC50 (pIC50) in data set [2], in data set [3], in data set [4], in data set [5], in [7] and in data set [8] was under 4.30 throughout. For the same compound, the pIC50 in data set [9], in data set [10], in [11], in [12], in data set [13] and in data set [14] was under 4.30 each time. Moreover, the pIC50 in data set [15], in data set [16], in data set [17], in data set [18], in data set [19] and in data set [20] was under 4.30 in each case. Further, the pIC50 was under 4.30 in data set [21]; under 4.30 in data set [22]; under 4.30 in data set [24]; 4.38 in data set [25]; under 4.30 in [26]; under 4.30 in data set [28]. For the same compound, the pIC50 in [29], in [31], in data set [33], in [34], in [35] and in data set [36] was under 4.30 in each case. In addition, the pIC50 in data set [37] is under 4.30; in [38], 7.25; in data set [39] it was under 4.30; in data set [40], under 4.30. The solubility at 24 h in data set [6] and in data set [27] was under 3 µg/mL in each case. Besides, the inhibition entry in [23] was “Active”. Also, the outcome in data set [30] was Active. The figures for the negative logarithm of the Kd (pKd) in data set [32] and in data set [1] were 6.82 and 7.23, respectively.
`Nc1ncnc2c1ncn2[C@@H]1O[C@H](COP(=O)(O)O)[C@@H](O)[C@H]1O` [ADENOSINE PHOSPHATE]: the results for the negative-log Kd (pKd) in [32] and in [1] were 3.43 and 3.92, respectively.
The corresponding values for `Nc1ncnc2c1ncn2[C@@H]1O[C@H](CO)[C@@H](O)[C@H]1O` [ADENOSINE] are 4.47 and 5.36.
For `Nc1ncnc2c1ncn2[C@@H]1O[C@H](COP(=O)(O)OP(=O)(O)OP(=O)(O)O)[C@@H](O)[C@H]1O` [ADENOSINE TRIPHOSPHATE], the negative-log Kd (pKd) in [1] is 5.55.
As for `Nc1ncnc2c1ncn2[C@@H]1O[C@H](COP(=O)(O)OP(=O)(O)O)[C@@H](O)[C@H]1O` [ADENOSINE DIPHOSPHATE], the negative logarithm of the Kd (pKd) in [32] is 4.20; in data set [1] it was 5.39.
Turning to `Oc1cnnc(SCc2ccc(Br)cc2)n1`, the outcome in [41] and in data set [42] was Active.
